# Experiments:
# [1] = Solubility test; assay type: physicochemical
# Protocol: According to the conventional method for solubility assay, the solubility of the compounds of the present invention in the following four different systems was tested: phosphate salt buffer PBS (pH7.4), methanol, 0.1% HCl and water.
# [2] = target: T1, human AT2R (Homo sapiens, UniProt P50052); assay: Antagonistic activity against human AT2R ligand binding (Tag-lite HTRF); conditions: Tb-labeled-AT2R cells, red agonist fluorescent ligand, 1 hour at 25° C.
# T1 construct: Tb (terbium) label on the receptor; expressed in transfected cells
# T1 sequence (P50052 1-363): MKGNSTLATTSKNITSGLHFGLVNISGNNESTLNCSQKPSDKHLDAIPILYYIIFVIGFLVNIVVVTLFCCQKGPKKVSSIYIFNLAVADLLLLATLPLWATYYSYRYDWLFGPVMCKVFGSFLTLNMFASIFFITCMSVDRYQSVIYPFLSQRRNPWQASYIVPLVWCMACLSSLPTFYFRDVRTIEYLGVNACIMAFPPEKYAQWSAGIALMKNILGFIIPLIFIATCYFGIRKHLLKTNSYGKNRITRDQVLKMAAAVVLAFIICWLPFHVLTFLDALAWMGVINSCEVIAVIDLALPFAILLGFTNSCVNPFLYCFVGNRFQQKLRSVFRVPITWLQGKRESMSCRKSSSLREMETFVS
# From the text: Test Example 1 Test of the antagonistic activity of the compounds of the present invention against human AT2R ligand binding.
# Angiotensin II Type-2 receptor (ATR) is involved in neuronal differentiation and regeneration, cell proliferation and angiogenesis, and maintenance of bone mass. ATR inhibitors can be used for treating pain and abnormal neuroregenerative diseases, inhibiting the proliferation of tumor cells and increasing bone mass. In the following methods, the degree of antagonism of the compounds of the present invention against AT2R was studied through AT2 ligand binding assay.
# According to standard methods, test compounds (compound 1m and compounds 1-4) were respectively dissolved in dimethyl sulfoxide to be prepared into stock solutions of 10 mM.
# (2) The test compound was subjected to 5-fold dilution with a total of 10 concentration gradients;
# (3) The diluted compound in step (2) was transferred to a working plate (3657, Corning) at 160 nL/well, 200 g at room temperature for 1 minute; […]
# (11) The reaction plate was centrifuged at 200 g for 1 minute at room temperature, then kept still at room temperature 25° C. for 1 hour, and centrifuged at 200 g for 1 minute at room temperature. Data were collected using Envision HTRF microplate reader, and IC50 was calculated using nonlinear fitting formula.
# [3] = Pharmacokinetic assay in SD rats; assay type: in vivo; conditions: PO 60 mg/kg; for AUC(0-inf) / Cmax / half-life / MRT: both sexes, Sprague-Dawley, rat, plasma; for AUC(0-inf): read-out: Area under the curve AUC0-∞; for Cmax: read-out: Blood concentration Cmax; for half-life: read-out: Half life T½ (converted); for MRT: read-out: Residence time MRT
# Protocol: SD rats were taken as the test animals, and the compounds of the present invention were administrated to the rats by intravenous injection or gavage. Then the drug concentrations in the plasma at different times were measured using LC/MS/MS method to study the pharmacokinetic characteristics of the compounds of the present invention in rats.
# Six healthy adult Sprague Dawley (SD) male rats were purchased from Vital River Laboratory Animal Technology Co., Ltd.
# 76.32 mg of compound 1m was weighed and dissolved in 12.72 mL of 0.5% sodium carboxymethyl cellulose (CMC-Na), the mixture was mixed by vortex for 1 minute until the compound was completely suspended, and the final prepared concentration was 6 mg/mL;
# 76.61 mg of compound 1 was weighed and dissolved in 12.768 mL of 0.5% sodium carboxymethyl cellulose (CMC-Na), the mixture was mixed by vortex for 1 minute until the compound was completely suspended, and the final prepared concentration was 6 mg/mL.
# Compounds 2 to 4 were weighed and dissolved in an appropriate amount of 0.5% sodium carboxymethyl cellulose (CMC-Na), the mixture was mixed by vortex for 1 minute until the compound was completely suspended, and the final prepared concentration was 6 mg/mL.
# Six healthy adult SD rats, half male and half female, were divided into 2 groups, 3 rats in each group. The rats were fasted overnight, and then intragastrically administered (po) with the compound 1m or compounds 1 to 4 of the present invention at a dose of 60 mg/kg.
# About 0.25 mL of blood was collected from the jugular vein before the administration and 0.25 hours, 0.5 hours, 1 hour, 2 hours, 4 hours, 6 hours, 8 hours and 24 hours after the administration, and heparin sodium was used for anticoagulation. The blood samples were placed on ice after collection, and then centrifuged to separate the plasma (centrifugation conditions: 7000 rpm, 5 minutes). The collected plasma was stored below −70° C. until analysis.
# 300 μL of methanol (comprising internal standard working solution, Loratadine 800 ng/mL) was added to 100 μL of plasma sample, then the mixture was mixed by vortex for 5 minutes, then the obtained mixture was centrifuged at 10,000 rpm for 10 minutes, and 1 μL of the resulting mixture was taken and subjected to LC-MS/MS analysis.
# [4] = methanol, organic solvent or mixture
SMILES,"solubility ([1]; aqueous buffer, PBS (pH 7.4))","solubility [1, 4]",solubility ([1]; water),IC50 [2],Increase of area under the curve compared with compound 1m ([3]; versus free acid compound 1m),Increase of plasma concentration compared with compound 1m ([3]; versus free acid compound 1m),AUC(0-inf) [3],Cmax [3],half-life [3],MRT [3]
COc1ccc(COc2c(OC)ccc3c2C[C@@H](C(=O)[O-])N(c2nc4ccc(F)cc4o2)C3)nc1.[Na+] [Compound 1],8690 µg/mL,> 10000 µg/mL,6410 µg/mL,6 nM,14 times,more than 50 times,328 ± 53.2 µg·h/mL,127 ± 12.7 µg/mL,3.57 ± 0.85 h,2.59 ± 0.41 h
COc1ccc(COc2c(OC)ccc3c2C[C@@H](C(=O)O)N(c2nc4ccc(F)cc4o2)C3)nc1 [Compound 1m],150 µg/mL,340 µg/mL,30 µg/mL,,,,22.2 ± 9.1 µg·h/mL,2.4 ± 0.53 µg/mL,3.73 ± 1.25 h,6.13 ± 1.13 h

# From patent US12606551B2, “Salt of tetrahydroisoquinoline derivative, preparation method therefor, and medical use thereof” (ZHEJIANG HISUN PHARMACEUTICAL CO., LTD., priority 2020, dated 2026)
